Assay results as given in ChEMBL document CHEMBL4507282, “Data for DCP probe BI-1950” (2021).

How the values were obtained:
[1] = target: Tyrosine-protein kinase FRK (Homo sapiens) (UniProt P42685); conditions: Compound concentration 1000.0 nM
[2] = target: Dual specificity protein kinase TTK (Homo sapiens) (UniProt P33981); conditions: Compound concentration 1000.0 nM
[3] = target: D(1B) dopamine receptor (Homo sapiens) (UniProt P21918); conditions: Compound concentration 10.0 uM
[4] = target: Serine/threonine-protein kinase TBK1 (Homo sapiens) (UniProt Q9UHD2); conditions: Compound concentration 1000.0 nM
Serine/threonine-protein kinase TBK1 (Homo sapiens), sequence (Q9UHD2 whole entry, the tested form may be a part): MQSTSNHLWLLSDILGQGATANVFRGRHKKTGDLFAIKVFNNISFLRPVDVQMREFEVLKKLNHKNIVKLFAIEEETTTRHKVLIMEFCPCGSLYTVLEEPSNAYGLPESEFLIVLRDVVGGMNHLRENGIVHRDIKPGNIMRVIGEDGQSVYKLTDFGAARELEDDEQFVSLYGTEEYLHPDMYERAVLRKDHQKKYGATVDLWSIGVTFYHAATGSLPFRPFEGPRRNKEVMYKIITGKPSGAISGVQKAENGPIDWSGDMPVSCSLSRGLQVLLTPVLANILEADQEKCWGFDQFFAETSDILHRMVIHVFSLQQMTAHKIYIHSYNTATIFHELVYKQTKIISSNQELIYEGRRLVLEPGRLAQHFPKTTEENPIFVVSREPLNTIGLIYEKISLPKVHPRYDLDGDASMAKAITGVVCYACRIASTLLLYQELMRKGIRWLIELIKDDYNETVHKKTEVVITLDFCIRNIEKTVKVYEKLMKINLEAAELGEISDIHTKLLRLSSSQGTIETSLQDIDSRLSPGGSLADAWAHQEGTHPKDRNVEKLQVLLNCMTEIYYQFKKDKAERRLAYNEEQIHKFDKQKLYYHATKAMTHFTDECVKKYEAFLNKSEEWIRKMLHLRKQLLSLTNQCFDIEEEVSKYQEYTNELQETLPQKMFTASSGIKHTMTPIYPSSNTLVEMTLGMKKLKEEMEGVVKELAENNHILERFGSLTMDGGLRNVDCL

[5] = target: LIM domain kinase 1 (Homo sapiens) (UniProt P53667); conditions: Compound concentration 1000.0 nM
LIM domain kinase 1 (Homo sapiens), sequence (P53667 whole entry, looked up, the tested form may be a part): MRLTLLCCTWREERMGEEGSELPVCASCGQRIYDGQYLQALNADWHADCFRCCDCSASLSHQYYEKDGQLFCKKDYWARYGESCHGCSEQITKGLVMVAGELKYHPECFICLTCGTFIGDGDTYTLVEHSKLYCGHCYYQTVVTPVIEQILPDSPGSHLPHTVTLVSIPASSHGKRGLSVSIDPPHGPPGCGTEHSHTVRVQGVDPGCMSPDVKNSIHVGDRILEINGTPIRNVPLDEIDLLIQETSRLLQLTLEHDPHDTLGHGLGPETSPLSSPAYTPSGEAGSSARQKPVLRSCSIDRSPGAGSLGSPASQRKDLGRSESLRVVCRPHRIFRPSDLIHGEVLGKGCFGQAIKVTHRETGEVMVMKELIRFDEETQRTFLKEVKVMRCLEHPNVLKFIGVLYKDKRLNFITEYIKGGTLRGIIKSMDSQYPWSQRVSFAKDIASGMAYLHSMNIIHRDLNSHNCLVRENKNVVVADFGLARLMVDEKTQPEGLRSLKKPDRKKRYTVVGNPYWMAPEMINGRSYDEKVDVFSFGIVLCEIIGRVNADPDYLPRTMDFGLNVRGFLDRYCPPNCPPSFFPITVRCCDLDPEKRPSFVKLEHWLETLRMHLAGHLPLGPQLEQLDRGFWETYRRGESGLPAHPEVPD

[6] = target: Tyrosine-protein kinase ABL2 (Homo sapiens) (UniProt P42684); conditions: Compound concentration 1000.0 nM
[7] = target: Serine/threonine-protein kinase MRCK beta (Homo sapiens) (UniProt Q9Y5S2); conditions: Compound concentration 1000.0 nM
[8] = target: Calcium/calmodulin-dependent protein kinase kinase 1 (Homo sapiens) (UniProt Q8N5S9); conditions: Compound concentration 1000.0 nM
[9] = target: Wee1-like protein kinase 2 (Homo sapiens) (UniProt P0C1S8); conditions: Compound concentration 1000.0 nM
[10] = target: Platelet-derived growth factor receptor alpha (Homo sapiens) (UniProt P16234); conditions: Compound concentration 1000.0 nM
[11] = target: Testis-specific serine/threonine-protein kinase 1 (Homo sapiens) (UniProt Q9BXA7); conditions: Compound concentration 1000.0 nM
[12] = target: Tyrosine-protein kinase ZAP-70 (Homo sapiens) (UniProt P43403); conditions: Compound concentration 1000.0 nM
[13] = target: Activin receptor type-2B (Homo sapiens) (UniProt Q13705); conditions: Compound concentration 1000.0 nM
[14] = target: Transient receptor potential cation channel subfamily M member 6 (Homo sapiens) (UniProt Q9BX84); conditions: Compound concentration 1000.0 nM
[15] = target: Insulin receptor-related protein (Homo sapiens) (UniProt P14616); conditions: Compound concentration 1000.0 nM
[16] = target: Cyclin-dependent kinase 11B (Homo sapiens) (UniProt P21127); conditions: Compound concentration 1000.0 nM
[17] = target: Fibroblast growth factor receptor 3 (Homo sapiens) (UniProt P22607); conditions: Compound concentration 1000.0 nM
[18] = test system: Phosphatidylinositol 4,5-bisphosphate 3-kinase catalytic subunit alpha isoform (Homo sapiens), P42336 [E542K]; conditions: Compound concentration 1000.0 nM
[19] = target: Non-receptor tyrosine-protein kinase TYK2 (Homo sapiens) (UniProt P29597); conditions: Compound concentration 1000.0 nM
[20] = target: Tyrosine-protein kinase JAK1 (Homo sapiens) (UniProt P23458); conditions: Compound concentration 1000.0 nM
Tyrosine-protein kinase JAK1 (Homo sapiens), sequence (P23458 whole entry): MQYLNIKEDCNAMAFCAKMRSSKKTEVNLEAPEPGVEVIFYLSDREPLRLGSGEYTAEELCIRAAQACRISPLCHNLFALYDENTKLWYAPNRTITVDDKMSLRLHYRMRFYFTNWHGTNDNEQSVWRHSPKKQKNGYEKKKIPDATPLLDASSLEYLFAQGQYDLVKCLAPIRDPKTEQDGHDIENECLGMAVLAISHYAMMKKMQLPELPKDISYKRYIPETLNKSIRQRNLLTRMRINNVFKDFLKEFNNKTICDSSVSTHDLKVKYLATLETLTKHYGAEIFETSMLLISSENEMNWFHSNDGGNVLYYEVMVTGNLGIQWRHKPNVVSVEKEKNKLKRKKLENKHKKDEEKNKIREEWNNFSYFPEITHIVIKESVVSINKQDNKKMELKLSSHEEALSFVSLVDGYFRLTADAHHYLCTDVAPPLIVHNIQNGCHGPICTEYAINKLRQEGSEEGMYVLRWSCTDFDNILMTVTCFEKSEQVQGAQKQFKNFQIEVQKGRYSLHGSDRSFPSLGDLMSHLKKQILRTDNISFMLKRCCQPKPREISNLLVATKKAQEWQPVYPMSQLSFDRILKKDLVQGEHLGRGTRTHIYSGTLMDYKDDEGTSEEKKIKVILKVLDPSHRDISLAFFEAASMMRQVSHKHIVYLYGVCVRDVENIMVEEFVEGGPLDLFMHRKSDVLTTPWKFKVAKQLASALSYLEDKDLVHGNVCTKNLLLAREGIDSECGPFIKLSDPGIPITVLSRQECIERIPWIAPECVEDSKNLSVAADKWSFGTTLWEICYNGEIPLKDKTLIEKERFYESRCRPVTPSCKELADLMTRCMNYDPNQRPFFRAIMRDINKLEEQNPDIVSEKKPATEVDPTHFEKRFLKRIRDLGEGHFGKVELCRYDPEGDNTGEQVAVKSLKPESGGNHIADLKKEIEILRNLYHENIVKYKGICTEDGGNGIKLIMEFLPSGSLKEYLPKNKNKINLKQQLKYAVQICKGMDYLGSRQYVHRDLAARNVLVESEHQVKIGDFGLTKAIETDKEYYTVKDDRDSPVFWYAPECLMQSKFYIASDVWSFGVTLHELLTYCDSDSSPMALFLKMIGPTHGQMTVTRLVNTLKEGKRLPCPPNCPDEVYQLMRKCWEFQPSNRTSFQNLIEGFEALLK

[21] = target: Ribosomal protein S6 kinase alpha-3 (Homo sapiens) (UniProt P51812); conditions: Compound concentration 1000.0 nM
Ribosomal protein S6 kinase alpha-3 (Homo sapiens), sequence (P51812 whole entry): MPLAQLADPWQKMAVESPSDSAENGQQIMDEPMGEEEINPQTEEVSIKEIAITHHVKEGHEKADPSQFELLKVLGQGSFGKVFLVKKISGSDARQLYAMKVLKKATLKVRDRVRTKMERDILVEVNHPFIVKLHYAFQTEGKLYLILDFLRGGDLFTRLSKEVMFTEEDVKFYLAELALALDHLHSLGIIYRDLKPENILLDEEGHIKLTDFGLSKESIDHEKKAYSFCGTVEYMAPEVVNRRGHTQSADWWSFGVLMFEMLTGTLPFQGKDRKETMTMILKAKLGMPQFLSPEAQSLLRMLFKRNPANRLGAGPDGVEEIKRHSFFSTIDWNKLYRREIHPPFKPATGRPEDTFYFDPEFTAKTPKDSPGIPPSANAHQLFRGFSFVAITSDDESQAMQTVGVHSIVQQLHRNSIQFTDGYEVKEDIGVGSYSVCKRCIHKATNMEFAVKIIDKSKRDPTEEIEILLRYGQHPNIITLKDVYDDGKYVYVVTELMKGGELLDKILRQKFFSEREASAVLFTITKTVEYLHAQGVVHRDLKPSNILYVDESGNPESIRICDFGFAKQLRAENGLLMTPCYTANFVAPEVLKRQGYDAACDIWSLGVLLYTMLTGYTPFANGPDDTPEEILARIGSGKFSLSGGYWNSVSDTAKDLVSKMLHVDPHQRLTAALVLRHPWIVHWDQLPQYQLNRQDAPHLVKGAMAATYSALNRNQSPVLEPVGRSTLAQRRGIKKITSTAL

[22] = target: Tyrosine-protein kinase TXK (Homo sapiens) (UniProt P42681); conditions: Compound concentration 1000.0 nM
[23] = target: Alpha-2B adrenergic receptor (Homo sapiens) (UniProt P18089); conditions: Compound concentration 10.0 uM
[24] = test system: Mast/stem cell growth factor receptor Kit (Homo sapiens), P10721 [A829P]; conditions: Compound concentration 1000.0 nM
[25] = target: Mitogen-activated protein kinase 11 (Homo sapiens) (UniProt Q15759); conditions: Compound concentration 1000.0 nM
Mitogen-activated protein kinase 11 (Homo sapiens), sequence (Q15759 whole entry): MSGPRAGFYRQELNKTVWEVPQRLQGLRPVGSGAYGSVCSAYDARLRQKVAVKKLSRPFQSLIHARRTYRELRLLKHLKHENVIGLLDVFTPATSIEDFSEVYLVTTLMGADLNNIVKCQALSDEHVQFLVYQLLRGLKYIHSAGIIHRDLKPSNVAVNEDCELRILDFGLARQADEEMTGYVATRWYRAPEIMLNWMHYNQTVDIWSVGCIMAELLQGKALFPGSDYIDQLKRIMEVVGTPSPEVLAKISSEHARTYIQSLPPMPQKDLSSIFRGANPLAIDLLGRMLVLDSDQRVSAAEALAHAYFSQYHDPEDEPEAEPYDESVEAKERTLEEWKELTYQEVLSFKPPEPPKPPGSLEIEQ

[26] = target: Serine/threonine-protein kinase tousled-like 1 (Homo sapiens) (UniProt Q9UKI8); conditions: Compound concentration 1000.0 nM
[27] = target: Serine/threonine-protein kinase VRK2 (Homo sapiens) (UniProt Q86Y07); conditions: Compound concentration 1000.0 nM
Serine/threonine-protein kinase VRK2 (Homo sapiens), sequence (Q86Y07 whole entry): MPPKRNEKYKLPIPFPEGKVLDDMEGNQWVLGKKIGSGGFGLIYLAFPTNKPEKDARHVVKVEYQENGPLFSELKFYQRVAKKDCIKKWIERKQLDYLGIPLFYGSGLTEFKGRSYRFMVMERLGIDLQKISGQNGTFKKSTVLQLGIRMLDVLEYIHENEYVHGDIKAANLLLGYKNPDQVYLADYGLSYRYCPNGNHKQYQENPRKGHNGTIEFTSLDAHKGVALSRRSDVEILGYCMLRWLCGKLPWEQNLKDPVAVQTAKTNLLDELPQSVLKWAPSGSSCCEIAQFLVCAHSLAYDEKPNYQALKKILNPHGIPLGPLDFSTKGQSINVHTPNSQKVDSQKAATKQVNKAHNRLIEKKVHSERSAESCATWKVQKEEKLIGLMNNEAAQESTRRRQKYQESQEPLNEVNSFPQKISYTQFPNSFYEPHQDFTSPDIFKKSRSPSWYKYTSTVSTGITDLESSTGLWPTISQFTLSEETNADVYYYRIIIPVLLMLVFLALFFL

[28] = target: Serine/threonine-protein kinase 3 (Homo sapiens) (UniProt Q13188); conditions: Compound concentration 1000.0 nM
[29] = target: Serine/threonine-protein kinase Nek5 (Homo sapiens) (UniProt Q6P3R8); conditions: Compound concentration 1000.0 nM
[30] = target: Serine/threonine-protein kinase SIK3 (Homo sapiens) (UniProt Q9Y2K2); conditions: Compound concentration 1000.0 nM
[31] = test system: Proto-oncogene tyrosine-protein kinase receptor Ret (Homo sapiens), P07949 [V804M]; conditions: Compound concentration 1000.0 nM
[32] = target: 5-hydroxytryptamine receptor 1D (Homo sapiens) (UniProt P28221); conditions: Compound concentration 10.0 uM
[33] = target: Vascular endothelial growth factor receptor 1 (Homo sapiens) (UniProt P17948); conditions: Compound concentration 1000.0 nM
[34] = test system: Receptor-type tyrosine-protein kinase FLT3 (Homo sapiens), P36888 [D835H]; conditions: Compound concentration 1000.0 nM
[35] = target: D(1A) dopamine receptor (Homo sapiens) (UniProt P21728); conditions: Compound concentration 10.0 uM
[36] = target: Tyrosine-protein kinase ABL1 (Homo sapiens) (UniProt P00519); conditions: Compound concentration 1000.0 nM
[37] = target: Dual specificity tyrosine-phosphorylation-regulated kinase 1B (Homo sapiens) (UniProt Q9Y463); conditions: Compound concentration 1000.0 nM
Dual specificity tyrosine-phosphorylation-regulated kinase 1B (Homo sapiens), sequence (Q9Y463 whole entry, looked up): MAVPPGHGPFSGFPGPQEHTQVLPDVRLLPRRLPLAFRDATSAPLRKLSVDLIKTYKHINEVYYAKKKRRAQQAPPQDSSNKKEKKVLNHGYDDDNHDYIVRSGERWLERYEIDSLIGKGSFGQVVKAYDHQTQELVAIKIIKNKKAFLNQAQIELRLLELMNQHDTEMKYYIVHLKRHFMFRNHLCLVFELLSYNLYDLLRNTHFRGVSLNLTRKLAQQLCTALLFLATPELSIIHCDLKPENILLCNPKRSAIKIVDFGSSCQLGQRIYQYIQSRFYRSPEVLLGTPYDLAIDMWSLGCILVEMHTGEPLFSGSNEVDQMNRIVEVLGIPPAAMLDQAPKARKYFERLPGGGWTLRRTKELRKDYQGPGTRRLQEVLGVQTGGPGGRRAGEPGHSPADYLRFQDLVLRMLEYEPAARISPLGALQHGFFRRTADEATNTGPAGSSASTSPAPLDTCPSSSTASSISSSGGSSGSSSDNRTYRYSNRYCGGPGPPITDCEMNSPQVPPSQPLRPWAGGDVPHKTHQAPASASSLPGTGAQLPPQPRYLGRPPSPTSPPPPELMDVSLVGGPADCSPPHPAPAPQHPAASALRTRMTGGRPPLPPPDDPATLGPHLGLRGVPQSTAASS

[38] = test system: Mast/stem cell growth factor receptor Kit (Homo sapiens), P10721 [D816V]; conditions: Compound concentration 1000.0 nM
[39] = target: GABA-A receptor; anion channel (Rattus norvegicus) (UniProt O09028+P15431+P18506+P18508+P19969+P20236+P23574+P23576+P28471+P28473+P30191+P62813+P63079+P63138+Q91ZM7+Q9ES14); conditions: Compound concentration 10.0 uM
[40] = test system: Mast/stem cell growth factor receptor Kit (Homo sapiens), P10721 [V559D,V654A]; conditions: Compound concentration 1000.0 nM
[41] = target: Eukaryotic translation initiation factor 2-alpha kinase 1 (Homo sapiens) (UniProt Q9BQI3); conditions: Compound concentration 1000.0 nM
[42] = target: Calcium/calmodulin-dependent protein kinase type 1 (Homo sapiens) (UniProt Q14012); conditions: Compound concentration 1000.0 nM
[43] = test system: Epidermal growth factor receptor (Homo sapiens), P00533 [UNDEFINED MUTATION]; conditions: Compound concentration 1000.0 nM

C[C@H](NC(=O)c1cnc2n1[C@](C)(Cc1ccc(C#N)cc1)C(=O)N2c1cc(Cl)c(F)c(Cl)c1)C(=O)NC1(c2ccccn2)CC1 [BI 1950]
residual activity [1]: 68% | residual activity [2]: 100% | inhibition [3]: 14% | residual activity [4]: 97% | residual activity [5]: 100% | residual activity [6]: 83% | residual activity [7]: 100% | residual activity [8]: 100% | residual activity [9]: 100% | residual activity [10]: 100% | residual activity [11]: 79% | residual activity [12]: 100% | residual activity [13]: 100% | residual activity [14]: 100% | residual activity [15]: 100% | residual activity [16]: 100% | residual activity [17]: 100% | residual activity [18]: 100% | residual activity [19]: 100% | residual activity [20]: 100% | residual activity [21]: 100% | residual activity [22]: 90% | inhibition [23]: -3.79% | residual activity [24]: 100% | residual activity [25]: 100% | residual activity [26]: 100% | residual activity [27]: 100% | residual activity [28]: 100% | residual activity [29]: 100% | residual activity [30]: 76% | residual activity [31]: 100% | inhibition [32]: 12% | residual activity [33]: 100% | residual activity [34]: 100% | inhibition [35]: 1.26% | residual activity [36]: 99% | residual activity [37]: 100% | residual activity [38]: 100% | inhibition [39]: -4.17% | residual activity [40]: 100% | residual activity [41]: 93% | residual activity [42]: 96% | residual activity [43]: 100%

C[C@@]1(Cc2ccc(C#N)cc2)C(=O)N(c2cc(Cl)cc(Cl)c2)c2ncc(C(=O)NC3(c4nc(C5CCC5)no4)CC3)n21 [BI 9446]
residual activity [1]: 81% | residual activity [2]: 94% | inhibition [3]: 7.21% | residual activity [4]: 95% | residual activity [5]: 90% | residual activity [6]: 78% | residual activity [7]: 100% | residual activity [8]: 100% | residual activity [9]: 100% | residual activity [10]: 100% | residual activity [11]: 76% | residual activity [12]: 90% | residual activity [13]: 100% | residual activity [14]: 0% | residual activity [15]: 100% | residual activity [16]: 100% | residual activity [17]: 100% | residual activity [18]: 83% | residual activity [19]: 100% | residual activity [20]: 100% | residual activity [21]: 100% | residual activity [22]: 100% | inhibition [23]: 15% | residual activity [24]: 100% | residual activity [25]: 100% | residual activity [26]: 100% | residual activity [27]: 100% | residual activity [28]: 100% | residual activity [29]: 100% | residual activity [30]: 98% | residual activity [31]: 100% | inhibition [32]: 22.4% | residual activity [33]: 99% | residual activity [34]: 100% | inhibition [35]: 18.6% | residual activity [36]: 100% | residual activity [37]: 80% | residual activity [38]: 100% | inhibition [39]: -8.68% | residual activity [40]: 85% | residual activity [41]: 100% | residual activity [42]: 93% | residual activity [43]: 100%
